Measured values as given in patent US5747463A, “Malonate derivatives of glycolipids as cell adhesion inhibitors” (Bristol-Myers Squibb Company, priority 1996, dated 1998).

Experiments:
P-selectin [1] = assay: P-Selectin adhesion receptor binding: ELISA, inhibition of P-selectin binding to immobilized sulfatides (cell free); conditions: 45 minutes at 37° C., pH 8.0
Experimental: Based on the availability of soluble forms of P-selectin prepared as described by Aruffo, A. et al., Cell, 67, 35-44 (1991), a binding ELISA based assay modified from Foxall, et al., J. Cell Biol., 117, 1895-902 (1992) was developed to measure inhibitors of P-selectin binding to immobilized sulfatides. Such inhibitors were tested in the assay described below.
0.1 ml of sulfatide (SIGMA) at 1 μg/ml in MeOH was added to 48 wells of a 96-well ELISA plate (ProBind, Falcon) and allowed to dry overnight at room temperature. Another set of 48 wells were incubated with the solvent (methanol, Fisher Scientific). The next day the antigen/solvent coated plates were blocked for 1.5 hours at room temperature with 5% BSA (ICN) in buffer containing 20 mM Hepes, 1 mM CaCl2 and 0.15M NaCl, pH 8.0. […] Bound complexes were detected by addition of substrate buffer (95 mM NaOAc.3H2 O, 5 mM citric acid monohydrate, 1.4 mM urea/H2 O2) containing 3,3',5,5'-tetramethylbenzidine (SIGMA). Reactions were stopped by the addition of 3N sulfuric acid and the absorbance read on an ELISA reader at dual wavelengths 450 and 630 nm. […] The data is obtained as percent inhibition of specific binding [formula] and a plot of dose vs. percent inhibition of Rg binding is generated in which IC50 (μM) is calculated and reported as cell free data in Table 1.

[2] = test system: platelet: HL-60 cell adhesion; assay: HL-60 Platelet Cell Adhesion Assay; type: cell-based; conditions: 0.5 h; thrombin-activated human platelets: HL-60 5:1, 30 minutes at room temperature; read-out: P-selectin HL-60 Platelets IC50
Experimental: HL-60 cells, obtained from American Type Culture Collection, were cultured in RPMI 1640 medium (GIBCO) supplemented with 20% fetal calf serum (Sigma) and 50 μg/ml gentamicin (GIBCO). Cells in log phase growth were harvested, washed and resuspended in Tyrodes buffer containing 5 mM HEPES and 0.2% bovine serum albumin and were fixed with 1% buffered formalin.
Blood from normal human donors was anticoagulated with citrate, layered over 1-Step Platelets (Accurate Chemical Co.) and centrifuged at 350 g for 20 minutes at room temperature. The platelet band was collected, diluted in 2 volumes of Tyrode's Buffer with 5 mM HEPES, 10 mM EDTA, and 0.2% BSA (pH 7.4) (THEB) and centrifuged at 600 g for 10 minutes. The platelet pellet was resuspended in THEB and incubated at room temperature for 1 hour. Calcein-acetoxy methylester (Calcein-Am, Molecular Probes) was added to the platelets at a final concentration of 10 μM and incubated for 10 minutes at 37° C. to label the platelets. Without washing, the platelets were counted on a Coulter counter model ZM, and the concentration was adjusted to 1×10^7 /ml. The platelets were activated with 2 U/ml of human thrombin for 10 minutes in Tyrode's containing 2 mM CaCl2, 5 mM HEPES, and 0.2% BSA (pH 7.4) (THB) at 37° C. and immediately fixed with 1% buffered formalin for 1 to 2 hours at room temperature. A small aliquot of labeled platelets was removed before activation and designated as non-activated.
Both platelets and HL-60 were washed in a ≥25 fold excess volume of Hanks Balanced Salt Solution (HBSS), resuspended in THB and counted. Cell concentrations were adjusted to 2×10^7 /ml for platelets and 4×10^6 /ml for HL-60, this ratio determined to be optimum for platelet: HL-60 cell adhesion. Compounds were incubated with 50 μl of platelets for 30 minutes at room temperature before addition of 50 μl of HL-60. This ratio of 5:1 platelets to HL-60 was incubated for 30 minutes at room temperature before addition of 0.2 ml of THB to increase the volume so the samples could be analyzed on a FACScan cytometer (Becton Dickinson). Non-activated platelets, and activated platelets with 10 mM EDTA were included as controls. Data were collected within a region set for the forward scatter channel corresponding to HL-60 size events.
The percent HL-60 cells which contained bound platelets was determined for each test condition. The inhibition of binding was determined by comparison to standards which were treated with vehicle alone (representing 0% inhibition) and standards whose specific binding had been blocked by the use of EDTA (representing 100% inhibition), by the following formula: [formula] where x=HL-60 cells containing bound platelets in the presence of the compound;
b=HL-60 cells containing bound platelets in the presence of EDTA;
a=HL-60 cells containing bound platelets in the presence of compound vehicle;
z=% inhibition of platelet: HL-60 cell adhesion

rats = assay: Reverse Passive Arthus Reaction in Rats (RPA); type: in vivo, male Sprague Dawley rats; conditions: single dose of 3 mg IV, rat, 4 hours after BSA
From the text: The reverse passive Arthus reaction in rats is a modification of the method by Mulligan et al., as described in J. Clin. Invest, (1991) 88: 1396-1406. This is an experimental model in which the interaction of antigen-antibodycomplexes and complement leads to a severe vasculitis that is associated with edema, induration, erythema and hemorrhage. The interaction between the antigen-antibody complexes and complement leads to a localized influx of neutrophils. These neutrophils release a variety of mediators that are associated with tissue damage and vascular permeability. The localized inflammatory reaction is measured using different techniques i.e., vascular permeability and neutrophil influx which is evaluated both biochemically and microscopically.
Male Sprague Dawley specific pathogen-free rats with jugular vein cannulae (280-320 g, Hill Top Labs, Pennsylvania) are used in these studies. Animals are acclimated for at least 1 day and individually housed in stainless steel cages. The dorsal region of the rats is closely clipped 2 days prior to the experiments and divided into 4 sites on each side of the midline. Prior to all injections the rats are sedated with 0.4 ml per 300 gm rat of ketamine/rompun [1000 mg (10 ml) of ketamine HCl is mixed with 40 mg (2.0 ml) Rompun] administered IP and or inhalation anesthesia with metafane (methoxyflurane).
Bovin Serum Albumin (BSA) and rabbit polyclonal IgG rich in anti-BSA are purchased from Sigma Chemical Co. (St. Louis, Mo.). Radiolabelled ^125 I-BSA (spAct 1-5 μCi/μg) is purchased from Dupont NEN (Boston, Mass.).
Each rat is administered intradermal (ID) injection of (0.4 mg, 0.6 mg and 0.8 mg) anti-BSA in a volume of 100 μl per injection in normal saline. The ID injections are randomized near the mid dorsal region on both sides of the back bone. Immediately after the ID injections of the anti-BSA, the rats are administered intravenous (IV) injections of BSA (10 mg in 1.0 ml) in normal saline containing ^125 I labeled BSA (1 μCi/ml BSA or 5.0 μCi/kg body/wt) for quantification of dermal valscular injury. Anti-inflammatory agents such as inhibitors of adhesion molecules of the present invention are administered IV at a single dose of 3 mg immediately after BSA. Four (4) hours after the IV injection of BSA, the rats are anesthetized with metafane and 2 to 3 ml of blood is withdrawn via the cannula into an anticoagulant containing (EDTA or Heparin) tube and plasma separated and saved for neutrophil and albumin quantitation. The rats are killed and the skin surrounding the injection site (15 mm diameter) is punched out and weighed. The skin sample and a fixed volume of plasma (0.1 to 1.0 ml) is analyzed in a gamma-counter for ^125 I content. Skin samples from the contralateral side are processed and analyzed for myeloperoxidase activity (MPO) as a measure of neutrophil accumulation. As needed, samples are also processed for histological evaluation of the reacted sites.
The calculation of the plasma protein exudation into skin is made by determining the radioactivity in the tissue and relating this to the level of radioactive albumin in the blood at the time of sacrifice. […] [formula]
Percent inhibition of the test compound at 3 mg was determined as follows: [formula] Myeloperoxidase (MPO)
MPO is located in the azurophil granules of polymorphonuclear leukocytes (PMN). Because of its abundance in these cells (5% dry weight), this enzyme is used as a marker for tissue neutrophil content. For tissue MPO content, the method of Bradley, et al., was used as described in J. Invest. Dermatol. (1982) 78: 206-209. Biopsies from each treatment group were placed in plastic tubes (15×100 mm) containing 10 ml of 0.5% hexadecyltrimethylammonium bromide (HTAB) in 0.05M potassium phosphate buffer pH 6.0. The tissue was then homogenized with a Brinkmann Polytron homogenizer (10s). […]

P-selectin [3] = biological target: T1, P-selectin (Homo sapiens, UniProt P16109); conditions: literature; cited from earlier work
T1 sequence (P16109 42-830): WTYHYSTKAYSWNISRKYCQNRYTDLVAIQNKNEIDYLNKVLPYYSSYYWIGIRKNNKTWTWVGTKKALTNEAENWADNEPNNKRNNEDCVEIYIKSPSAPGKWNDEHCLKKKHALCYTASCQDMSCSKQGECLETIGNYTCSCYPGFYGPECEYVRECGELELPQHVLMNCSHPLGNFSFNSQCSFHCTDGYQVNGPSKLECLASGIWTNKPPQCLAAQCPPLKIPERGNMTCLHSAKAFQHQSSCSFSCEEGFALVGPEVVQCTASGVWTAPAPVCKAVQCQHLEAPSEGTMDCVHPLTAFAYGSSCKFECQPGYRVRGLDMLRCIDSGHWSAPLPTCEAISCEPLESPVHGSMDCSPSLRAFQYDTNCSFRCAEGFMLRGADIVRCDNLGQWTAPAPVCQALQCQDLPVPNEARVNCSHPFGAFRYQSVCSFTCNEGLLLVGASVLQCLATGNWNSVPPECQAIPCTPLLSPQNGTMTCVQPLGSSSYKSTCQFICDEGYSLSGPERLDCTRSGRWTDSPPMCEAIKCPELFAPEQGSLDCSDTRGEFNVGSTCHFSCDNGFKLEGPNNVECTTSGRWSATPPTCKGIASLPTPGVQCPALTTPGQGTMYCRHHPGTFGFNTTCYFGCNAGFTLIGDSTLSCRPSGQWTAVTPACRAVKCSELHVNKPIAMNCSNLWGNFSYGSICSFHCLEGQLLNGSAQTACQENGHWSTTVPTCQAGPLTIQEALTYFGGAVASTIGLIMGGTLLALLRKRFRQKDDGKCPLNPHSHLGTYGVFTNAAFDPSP

myeloid cell lines = conditions: cells grown in the presence of the substance; cited from earlier work

| IC50 (P-selectin [1]) [µM] | IC50 [2] [µM] | Compound | RPA MPO % Inhib. (myeloperoxidase) (rats) [%] | RPA VP % Inhib. (vascular permeability) (rats) [%] | binding to P-selectin (P-selectin [3]) | inhibition of binding of P-selectin to myeloid cell lines (myeloid cell lines) |
| --- | --- | --- | --- | --- | --- | --- |
| 7 | 19 | CCCCCCCCCCCCC/C=C/[C@@H](OC(=O)c1ccccc1)[C@H](CO[C@H]1O[C@H](CO)[C@H](O)[C@H](OC(=O)c2ccccc2)[C@H]1OCCCCC(C(=O)O)C(=O)O)NC(=O)CCCCCCCCCCCCCCC [Example 4, (2S,3R,4E)-3-Benzoyloxy-2-hexadecanoylamino-1-[2-O-(5,5-dicarboxypent-1-yl)-3-O-benzoyl-α-D-galactopyranosyloxy]-4-octadecene] | 84 | 60 |  |  |
| 8.2 | 12 | CCCCCCCCCCCCC/C=C/[C@@H](OC(=O)c1ccccc1)[C@H](CO[C@H]1O[C@H](CO)[C@H](O)[C@H](OC(=O)c2ccccc2)[C@H]1OCCC(C(=O)O)C(=O)O)NC(=O)CCCCCCCCCCCCCCC [Example 2, (2S,3R,4E)-3-Benzoyloxy-2-hexadecanoylamino-1-[2-O-(3,3-di-carboxyprop-1-yl)-3-O-benzoyl-α-D-galactopyranosyloxy]-4-octadecene] | 96 | 41 |  |  |
|  |  | CC(=O)N[C@H]1C(O)O[C@H](CO)[C@@H](O[C@@H]2O[C@H](CO)[C@H](O)[C@H](O)[C@H]2O)[C@@H]1O[C@@H]1O[C@@H](C)[C@@H](O)[C@@H](O)[C@@H]1O (stereo partly shown) [Le^x] |  |  | shown to bind |  |
|  |  | O=[Se](=O)(O)O [sodium selenate] |  |  |  | can be inhibited |
